Laboratory results from patent US12630521B2, “Arylamides and methods of use thereof” (Genzyme Corporation, priority 2019, dated 2026).

Tests used:
[1] = target: T1, CFTR (ΔF508 homozygous CF-HBE cells) (Homo sapiens, UniProt P13569, DEL508-508); test: TECC24 AUC fold over DMSO @10 uM: CFTR-mediated transepithelial chloride transport in primary CF-HBE cells; type: cell-based; settings: 10 μM test agent, 48 hours, forskolin-stimulated IEQ AUC divided by vehicle AUC
T1 construct: Primary human bronchial epithelial cells from a ΔF508 homozygous CF donor; host or cells: primary CF-HBE cells (ΔF508/ΔF508 donor)
T1 sequence (P13569 with tags, fused parts or gaps DEL508-508): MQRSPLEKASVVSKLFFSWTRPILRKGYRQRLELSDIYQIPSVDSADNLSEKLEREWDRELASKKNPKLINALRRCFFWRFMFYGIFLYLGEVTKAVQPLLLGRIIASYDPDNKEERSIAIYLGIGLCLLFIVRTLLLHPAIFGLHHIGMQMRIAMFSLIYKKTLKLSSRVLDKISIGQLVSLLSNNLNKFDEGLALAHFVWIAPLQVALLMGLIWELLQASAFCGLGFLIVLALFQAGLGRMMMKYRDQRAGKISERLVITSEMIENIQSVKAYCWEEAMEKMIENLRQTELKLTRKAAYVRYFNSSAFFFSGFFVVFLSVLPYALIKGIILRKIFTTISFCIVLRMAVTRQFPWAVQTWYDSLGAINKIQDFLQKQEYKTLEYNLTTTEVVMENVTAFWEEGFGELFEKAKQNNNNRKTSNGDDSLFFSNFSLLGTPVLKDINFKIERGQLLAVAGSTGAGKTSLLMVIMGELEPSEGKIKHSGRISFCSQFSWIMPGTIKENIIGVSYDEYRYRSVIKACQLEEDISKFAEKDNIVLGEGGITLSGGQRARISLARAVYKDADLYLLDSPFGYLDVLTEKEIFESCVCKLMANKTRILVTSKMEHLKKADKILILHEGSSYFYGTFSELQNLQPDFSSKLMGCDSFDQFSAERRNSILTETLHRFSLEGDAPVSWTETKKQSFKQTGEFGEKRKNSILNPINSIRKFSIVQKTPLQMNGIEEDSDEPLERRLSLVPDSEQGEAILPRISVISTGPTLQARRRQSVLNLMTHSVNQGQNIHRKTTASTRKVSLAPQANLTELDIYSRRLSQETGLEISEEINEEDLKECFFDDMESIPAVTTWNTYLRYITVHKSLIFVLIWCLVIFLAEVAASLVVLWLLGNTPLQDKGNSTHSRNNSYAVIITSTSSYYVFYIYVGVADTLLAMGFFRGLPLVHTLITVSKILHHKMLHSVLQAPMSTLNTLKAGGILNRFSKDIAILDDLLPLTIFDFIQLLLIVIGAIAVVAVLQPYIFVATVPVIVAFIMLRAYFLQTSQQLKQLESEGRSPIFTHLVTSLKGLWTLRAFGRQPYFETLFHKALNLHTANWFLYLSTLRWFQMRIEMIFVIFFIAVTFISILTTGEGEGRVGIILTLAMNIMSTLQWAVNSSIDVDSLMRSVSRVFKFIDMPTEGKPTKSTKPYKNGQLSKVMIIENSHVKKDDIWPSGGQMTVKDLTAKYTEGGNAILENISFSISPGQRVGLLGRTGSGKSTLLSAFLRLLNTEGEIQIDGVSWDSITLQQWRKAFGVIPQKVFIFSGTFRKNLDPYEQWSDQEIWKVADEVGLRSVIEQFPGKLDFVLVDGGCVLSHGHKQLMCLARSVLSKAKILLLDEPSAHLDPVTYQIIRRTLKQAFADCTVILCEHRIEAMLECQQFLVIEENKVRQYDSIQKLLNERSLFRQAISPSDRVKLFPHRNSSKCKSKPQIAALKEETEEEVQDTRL
Method: Example 37: TECC24 AUC Fold Over DMSO @10 uM
The effects of a test agent on CFTR-mediated transepithelial chloride transport was measured using TECC24 recording analysis. Test agents were solubilized in DMSO. Solubilized test agents were mixed with incubation medium containing DMEM/F12, Ultroser G (2%; Crescent Chemical, catalog #67042), Hyclone Fetal Clone 11(2%; GE Healthcare, catalog #SH30066.02), bovine brain extract (0.25%; Lonza, catalog #CC-4098), insulin (2.5 μg/mL), IL-13 (10 ng/mL), hydrocortisone (20 nM), transferrin (2.5 μg/mL), triiodothyronine (500 nM), ethanolamine (250 nM), epinephrine (1.5 μM), phosphoethanolamine (250 nM), and retinoic acid (10 nM). Primary human bronchial epithelial cells from a ΔF508 homozygous CF donor (CF-HBE cells; from University of North Carolina Cystic Fibrosis Tissue Procurement Center), grown on Transwell HTS 24-well cell culture inserts (Costar, catalog #3378), were exposed to test agents or controls dissolved in incubation medium. The CF-HBE cells were cultured at 36.5° C. for 48 hours before TECC24 recordings were performed in the presence or absence of test agent, a positive control or vehicle (DMSO).
Following incubation, the transwell cell culture inserts containing the test agent or control-treated CF-HBE cells were loaded onto a TECC24 apparatus (TECC v7 or MTECC v2; EP Design) to record the transepithelial voltage (VT) and resistance (TEER) using 4 AgCl electrodes per well configured in current-clamp mode. The apical and basolateral bath solutions both contained (in mM) 140 NaCl, 5 KCl, 2 CaCl2, 1 MgCl2, 10 Hepes, and 10 glucose (adjusted to pH 7.4 with NaOH). To inhibit basal Na+ absorption, the ENaC inhibitor benzamil (10 μM) was added to the bath. Then, the adenylate cyclase activator, forskolin (10 μM), was added to the bath to activate CFTR. The forskolin-stimulated Cl— transport was halted by addition of CFTR inhibitor-172 (20 μM) to the bath at the end of the experiment to confirm specificity. VT and TEER recordings were digitally acquired at routine intervals using TECC or MTECC software (EP Design). VT and TEER were transformed into equivalent transepithelial Cl-current (IEQ), and the Area Under the Curve (AUC) of the IEQ time course between forskolin and CFTR inhibitor-172 addition is generated using Excel (Microsoft). Efficacy is expressed as the ratio of the test agent AUC divided by vehicle AUC. EC50s based on AUC are generated using the non-linear regression log(agonist) vs. response function in Prism software (GraphPad) with Hill Slope fixed=1.
If a test agent increased the AUC of the forskolin-stimulated IEQ relative to vehicle in CF-HBE cells, and this increase was inhibited by CFTR inhibitor-172, then the test agent was considered a CFTR corrector.

[2] = target: T2, human Cystic Fibrosis Transmembrane Conductance Regulator (CFTR) harboring the ΔF508 mutation (Homo sapiens, UniProt P13569, DEL508-508); test: H441 cell Emax and EC50: HRP-tagged ΔF508-CFTR cell-surface luminescence assay; type: cell-based; settings: H441 cells expressing HRP-tagged ΔF508-CFTR, 27° C. for two nights; for EC50: 15-point dose-response; for Emax: NCI-H441, % of maximum VX809 signal
T2 construct: expressed in transfected cells; host or cells: H441 carcinoma cell line (G418 selection)
T2 sequence (P13569 with tags, fused parts or gaps DEL508-508): as above
From the text: Example 36: H441 Cell Emax and EC50
Two cell lines were used, the H441 carcinoma line and the CFHBE41o− (41o−) human bronchial epithelial line. Both cell lines expressed human Cystic Fibrosis Transmembrane Conductance Regulator (CFTR) harboring the ΔF508 mutation and with an in-frame fusion in CFTR extracellular loop 4 of Horse Radish Peroxidase (HRP) under control of the CMV promoter. In the presence of the HRP tag, ΔF508-CFTR transported to the cell surface was detectable upon addition of an HRP substrate (Luminata Forte). Both cell types were cultivated at 37° C. with CO2.
For both cell types, the medium was changed every other day unless the culture was at low % confluence. Cells were used for the assays at ˜75% confluence.
DMSO/Compound Dilutions Plate for 15-Point Dose-Response Testing
To a polypropylene (PP) 384-well plate, 15 μls DMSO was added to all wells in columns 1-22 and 24 (low Control). 15 μls of 260 μM VX809 (Lumacaftor), Selleckchem S1565, was added to column 23 wells (high Control). 15 μls of 10 mM test compound or VX809 (control) were added to wells of row A. Serial dilutions of Row A compound were performed 2×15 μls in rows A through 0 (15-point).
A PP, 384-well plate containing the appropriate cell culture medium was prepared for each assay plate with 100 μls per well. For the doxycycline-induced 41o− cells, doxycycline for both the assay plate and the medium dilution plate was added at 0.0005 mg/ml to the medium.
Both cell lines were plated for the assay at 30 μls per 384-well at 3.4×10^e5 cells per ml (˜10K cells/well). H441 cells were plated on opaque, white, Corning plate 3704. 41o− cells were plated on collagen-coated opaque, white, Corning plate 356665. For 41o− cells, doxycycline was added to the medium.
Compound Addition/Assay Incubation
Using FX (Beckman) protocol, 10 μls diluted compound or medium was added per well to the Assay Plate as: 2 μls DMSO Dilution plate well is diluted in 100 μls of the Medium Dilution Plate well, mixed, and 10 μls is transferred to the Assay Plate.
The final assay dilution series is 24.5, 12.3, 6.1, 3.1, 1.5, 0.8, 0.4, 0.2, 0.1, 0.05, 0.02, 0.01, 0.006, 0.003, 0.001 and 0 μM. The 41o− assay plates were incubated at 37° C. w/CO2, the H441 assay plates were incubated at 27° C. w/CO2, each overnight for two nights.
Assay Result Determination
After being brought to room temperature, the assay plate liquid was removed. 30 uls of Luminata Forte (Millipore ELLUF0100) was added per well and incubated at room temperature for 10 min. The plates were then read on a Topcount, protocol LumiMatti (CPS, luminescence). The data was analyzed for % of maximum, maximum VX809 signal, and EC50 using Pearl and SPEED tools.

Row | Structure (SMILES) | TECC24 AUC fold over DMSO [1] | EC50 [2] [µM] | Emax [2] [%]
1 | CCc1cc2ccc(C(=O)N[C@H](C(=O)O)C(C)(C)CC)c(OCc3ccc(OC(F)(F)F)cc3)c2s1 [Compound 33-10, (2S)-2-(2-ethyl-7-((4-(trifluoromethoxy)benzyl)oxy)-benzo[b]thiophene-6-carboxamido)-3,3-dimethylpentanoic acid] | B (“B” refers to AUC @10 μM between 4-6) | 1.25 | 216
2 | CCc1cc2c(OCc3ccc(OC(F)(F)F)cc3)c(C(=O)N[C@H](C(=O)O)C(C)(C)C)ccc2s1 [Compound 33-23, (2S)-2-(2-ethyl-4-((4-(trifluoromethoxy)benzyl)oxy)-3a,7a-benzo[b]thiophene-5-carboxamido)-3,3-dimethylbutanoic acid] | A (“A” refers to AUC @10 μM > 6) | 1.13 | 315
3 | Cc1cc2c(OCc3ccc(OC(F)(F)F)cc3)c(C(=O)N[C@H](C(=O)O)C(C)(C)C)ccc2s1 [Compound 33-13, (2S)-3,3-dimethyl-2-(2-methyl-4-((4-(trifluoromethoxy)benzyl)oxy)-benzo[b]thiophene-5-carboxamido)butanoic acid] | A (“A” refers to AUC @10 μM > 6) | 0.377 | 324
4 | CC(C)CCc1cc2c(OCc3ccc(C(F)(F)F)cc3)c(C(=O)N[C@H](C(=O)O)C(C)(C)C)ccc2s1 [Compound 33-2, (2S)-2-[[2-isopentyl-4-[[4-(trifluoromethyl)phenyl]methoxy]benzothiophene-5-carbonyl]amino]-3,3-dimethyl-butanoic acid] | B (“B” refers to AUC @10 μM between 4-6) | 0.441 | 216
5 | CCC(C)(C)[C@H](NC(=O)c1ccc2sc(Cl)c(C)c2c1OCc1ccc(OC(F)(F)F)cc1)C(=O)O [Compound 34-1, (S)-2-(2-chloro-3-methyl-4-((4-(trifluoromethoxy)benzyl)oxy)-benzo[b]thiophene-5-carboxamido)-3,3-dimethylpentanoic acid] | A (“A” refers to AUC @10 μM > 6) | 0.358 | 179
6 | CC1(C(NC(=O)c2ccc3sccc3c2OCC2CCC(F)(F)CC2)C(=O)O)CCCCC1 (centres unmarked) [Compound 32-4, 2-(4-((4,4-difluorocyclohexyl)methoxy)-benzo[b]thiophene-5-carboxamido)-2-(1-methylcyclohexyl)acetic acid] | C (“C” refers to AUC @10 μM < 4) | 4.37 | 78.7
7 | CCC(C)(C)[C@H](NC(=O)c1ccc2sccc2c1OCC1CCC(F)(F)CC1)C(=O)O [Compound 32-10, (2S)-2-(4-((4,4-difluorocyclohexyl)methoxy)-benzo[b]thiophene-5-carboxamido)-3,3-dimethylpentanoic acid] | C (“C” refers to AUC @10 μM < 4) | 7.31 | 85.3
8 | CCC(C)(C)[C@H](NC(=O)c1ccc2sc(Cl)c(C)c2c1OCc1ccc(C(F)(F)F)cc1)C(=O)O [Compound 34-3] | A (“A” refers to AUC @10 μM > 6) | 0.406 | 222
9 | CC(C)(C)[C@H](NC(=O)c1ccc2sc(C3(F)CC3)nc2c1OCc1ccc(C(F)(F)F)cc1)C(=O)O [Compound 35-8, (2S)-2-[[2-(1-fluorocyclopropyl)-4-[[4-(trifluoromethyl)phenyl]methoxy]-1,3-benzothiazole-5-carbonyl]amino]-3,3-dimethyl-butanoic acid] | A (“A” refers to AUC @10 μM > 6) | – | –
10 | CC(C)(C)[C@H](NC(=O)c1ccc2sccc2c1OCc1ccc(OC(F)F)cc1)C(=O)O [Compound 32-8, (2S)-2-(4-((4-(difluoromethoxy)benzyl)oxy)-benzo[b]thiophene-5-carboxamido)-3,3-dimethylbutanoic acid] | – | 4.56 | 4.1
11 | CC(C)(C)[C@H](NC(=O)c1ccc2sc(C3CCCC3)nc2c1OCc1ccc(C(F)(F)F)cc1)C(=O)O [Compound 35-7, (2S)-2-[[2-cyclopentyl-4-[[4-(trifluoromethyl)phenyl]methoxy]-1,3-benzothiazole-5-carbonyl]amino]-3,3-dimethyl-butanoic acid] | A (“A” refers to AUC @10 μM > 6) | – | –
12 | CC(C)(C)[C@H](NC(=O)c1ccc2sc(C3CCC3)nc2c1OCc1ccc(C(F)(F)F)cc1)C(=O)O [Compound 35-9, (2S)-2-[[2-cyclobutyl-4-[[4-(trifluoromethyl)phenyl]methoxy]-1,3-benzothiazole-5-carbonyl]amino]-3,3-dimethyl-butanoic acid] | A (“A” refers to AUC @10 μM > 6) | – | –
13 | CCC(C)(C)[C@H](NC(=O)c1ccc2sc(C3CC3)nc2c1OCc1ccc(C(F)(F)F)cc1)C(=O)O [Compound 35-6, (2S)-2-[[2-cyclopropyl-4-[[4-(trifluoromethyl)phenyl]methoxy]-1,3-benzothiazole-5-carbonyl]amino]-3,3-dimethyl-pentanoic acid] | A (“A” refers to AUC @10 μM > 6) | – | –
14 | CC(C)(C)[C@H](NC(=O)c1ccc2sc(C3CC3)nc2c1OCc1ccc(C(F)(F)F)cc1)C(=O)O [Compound 35-5, (2S)-2-[[2-cyclopropyl-4-[[4-(trifluoromethyl)phenyl]methoxy]-1,3-benzothiazole-5-carbonyl]amino]-3,3-dimethyl-butanoic acid] | A (“A” refers to AUC @10 μM > 6) | – | –
15 | CC(C)(C)[C@H](NC(=O)c1ccc2sc(C(F)F)nc2c1OCc1ccc(C(F)(F)F)cc1)C(=O)O [Compound 35-4, (2S)-2-[[2-(difluoromethyl)-4-[[4-(trifluoromethyl)phenyl]methoxy]-1,3-benzothiazole-5-carbonyl]amino]-3,3-dimethyl-butanoic acid] | A (“A” refers to AUC @10 μM > 6) | – | –
